Experimental data as given in patent publication US11572590B2, “Methods for evaluating tumor cell spheroids using 3D microfluidic cell culture device” (Dana-Farber Cancer Institute, Inc., priority 2017, dated 2023).
Read-outs that look alike come from different tables or passages of the source.

Tests used:
Experiment in all cases: SelectScreen Kinase Profiling, single point inhibition and IC50 for off-target kinases
Type in all cases: biochemical
off-target kinases [1] = target: off-target kinases (Homo sapiens, UniProt P50750)
off-target kinases (Homo sapiens, UniProt P50750), sequence (P50750 whole entry): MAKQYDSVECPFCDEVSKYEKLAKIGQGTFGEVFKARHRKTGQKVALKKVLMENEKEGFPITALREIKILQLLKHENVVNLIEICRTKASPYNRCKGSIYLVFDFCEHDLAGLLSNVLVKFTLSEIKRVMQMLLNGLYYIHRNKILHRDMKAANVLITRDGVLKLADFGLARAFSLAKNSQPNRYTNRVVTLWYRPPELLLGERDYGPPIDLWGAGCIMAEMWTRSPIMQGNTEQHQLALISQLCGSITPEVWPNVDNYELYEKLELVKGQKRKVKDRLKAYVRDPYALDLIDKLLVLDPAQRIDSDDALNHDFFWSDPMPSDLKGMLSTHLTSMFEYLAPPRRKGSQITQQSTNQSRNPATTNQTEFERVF

off-target kinases [2] = target: off-target kinases (Homo sapiens, UniProt Q00536); details: CDK16 (PCTK1)/cyclin Y, LanthaScreen Binding
off-target kinases (Homo sapiens, UniProt Q00536), sequence (Q00536 whole entry): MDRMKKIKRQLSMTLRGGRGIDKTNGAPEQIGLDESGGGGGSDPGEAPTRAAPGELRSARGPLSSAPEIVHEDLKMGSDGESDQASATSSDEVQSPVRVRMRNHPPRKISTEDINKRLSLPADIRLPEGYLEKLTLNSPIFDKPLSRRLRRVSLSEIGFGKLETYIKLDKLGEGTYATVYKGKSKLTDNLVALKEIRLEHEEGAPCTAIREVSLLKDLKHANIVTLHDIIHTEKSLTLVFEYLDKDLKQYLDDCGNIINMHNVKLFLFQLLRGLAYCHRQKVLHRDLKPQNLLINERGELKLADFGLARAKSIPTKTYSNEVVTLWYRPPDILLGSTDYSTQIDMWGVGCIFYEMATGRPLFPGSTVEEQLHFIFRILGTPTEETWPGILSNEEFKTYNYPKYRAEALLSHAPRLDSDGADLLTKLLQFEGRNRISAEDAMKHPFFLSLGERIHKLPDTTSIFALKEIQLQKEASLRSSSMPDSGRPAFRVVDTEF

off-target kinases [3] = target: off-target kinases (Homo sapiens, UniProt P19525); details: EIF2AK2 (PKR), LanthaScreen Binding
off-target kinases (Homo sapiens, UniProt P19525), sequence (P19525 whole entry): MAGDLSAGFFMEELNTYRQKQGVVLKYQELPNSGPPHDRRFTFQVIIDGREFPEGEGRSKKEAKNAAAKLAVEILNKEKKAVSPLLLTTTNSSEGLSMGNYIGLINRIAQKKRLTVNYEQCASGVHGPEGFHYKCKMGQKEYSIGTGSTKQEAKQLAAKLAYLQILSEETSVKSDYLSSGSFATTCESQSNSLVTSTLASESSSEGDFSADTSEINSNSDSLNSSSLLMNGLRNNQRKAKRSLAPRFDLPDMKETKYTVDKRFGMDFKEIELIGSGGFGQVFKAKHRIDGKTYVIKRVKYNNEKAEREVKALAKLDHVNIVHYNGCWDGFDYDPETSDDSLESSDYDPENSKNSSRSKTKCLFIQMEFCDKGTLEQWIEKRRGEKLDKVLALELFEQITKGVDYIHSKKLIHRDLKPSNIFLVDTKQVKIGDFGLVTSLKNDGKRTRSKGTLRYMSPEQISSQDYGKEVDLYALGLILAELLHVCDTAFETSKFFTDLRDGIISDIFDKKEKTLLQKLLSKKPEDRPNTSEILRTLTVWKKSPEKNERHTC

off-target kinases [4] = target: T1, off-target kinases (Homo sapiens, UniProt Q7L7X3); details: TAOK1, LanthaScreen Binding
T1 sequence (Q7L7X3 1-1001): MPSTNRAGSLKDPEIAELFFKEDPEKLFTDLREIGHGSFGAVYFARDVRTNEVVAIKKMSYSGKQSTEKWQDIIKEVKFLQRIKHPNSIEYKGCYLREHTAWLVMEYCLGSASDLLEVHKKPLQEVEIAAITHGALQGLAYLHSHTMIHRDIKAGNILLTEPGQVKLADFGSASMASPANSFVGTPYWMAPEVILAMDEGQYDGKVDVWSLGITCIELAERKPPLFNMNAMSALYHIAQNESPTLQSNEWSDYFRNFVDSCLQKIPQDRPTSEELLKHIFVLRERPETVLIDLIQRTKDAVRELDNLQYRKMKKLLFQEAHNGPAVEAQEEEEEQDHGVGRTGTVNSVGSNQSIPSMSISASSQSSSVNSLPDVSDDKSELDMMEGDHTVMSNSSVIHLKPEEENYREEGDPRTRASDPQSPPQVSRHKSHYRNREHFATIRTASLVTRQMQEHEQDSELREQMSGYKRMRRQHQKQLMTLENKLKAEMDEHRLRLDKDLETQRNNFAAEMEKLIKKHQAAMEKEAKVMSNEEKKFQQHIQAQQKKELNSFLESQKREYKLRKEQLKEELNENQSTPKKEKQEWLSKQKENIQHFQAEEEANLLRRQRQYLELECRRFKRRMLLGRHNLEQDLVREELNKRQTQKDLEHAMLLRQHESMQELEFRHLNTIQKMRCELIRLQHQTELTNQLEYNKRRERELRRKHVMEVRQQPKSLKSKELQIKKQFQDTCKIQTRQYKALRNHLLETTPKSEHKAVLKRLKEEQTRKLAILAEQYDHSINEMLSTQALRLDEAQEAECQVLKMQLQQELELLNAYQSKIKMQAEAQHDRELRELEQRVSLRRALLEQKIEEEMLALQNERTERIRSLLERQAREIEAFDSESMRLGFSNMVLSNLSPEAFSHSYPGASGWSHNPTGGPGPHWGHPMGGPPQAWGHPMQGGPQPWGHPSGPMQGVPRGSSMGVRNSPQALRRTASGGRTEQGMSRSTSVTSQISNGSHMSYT

off-target kinases [5] = target: off-target kinases (Homo sapiens, UniProt P00519); details: ABL1, ATP Km app, ZLYTE
off-target kinases (Homo sapiens, UniProt P00519), sequence (P00519 whole entry): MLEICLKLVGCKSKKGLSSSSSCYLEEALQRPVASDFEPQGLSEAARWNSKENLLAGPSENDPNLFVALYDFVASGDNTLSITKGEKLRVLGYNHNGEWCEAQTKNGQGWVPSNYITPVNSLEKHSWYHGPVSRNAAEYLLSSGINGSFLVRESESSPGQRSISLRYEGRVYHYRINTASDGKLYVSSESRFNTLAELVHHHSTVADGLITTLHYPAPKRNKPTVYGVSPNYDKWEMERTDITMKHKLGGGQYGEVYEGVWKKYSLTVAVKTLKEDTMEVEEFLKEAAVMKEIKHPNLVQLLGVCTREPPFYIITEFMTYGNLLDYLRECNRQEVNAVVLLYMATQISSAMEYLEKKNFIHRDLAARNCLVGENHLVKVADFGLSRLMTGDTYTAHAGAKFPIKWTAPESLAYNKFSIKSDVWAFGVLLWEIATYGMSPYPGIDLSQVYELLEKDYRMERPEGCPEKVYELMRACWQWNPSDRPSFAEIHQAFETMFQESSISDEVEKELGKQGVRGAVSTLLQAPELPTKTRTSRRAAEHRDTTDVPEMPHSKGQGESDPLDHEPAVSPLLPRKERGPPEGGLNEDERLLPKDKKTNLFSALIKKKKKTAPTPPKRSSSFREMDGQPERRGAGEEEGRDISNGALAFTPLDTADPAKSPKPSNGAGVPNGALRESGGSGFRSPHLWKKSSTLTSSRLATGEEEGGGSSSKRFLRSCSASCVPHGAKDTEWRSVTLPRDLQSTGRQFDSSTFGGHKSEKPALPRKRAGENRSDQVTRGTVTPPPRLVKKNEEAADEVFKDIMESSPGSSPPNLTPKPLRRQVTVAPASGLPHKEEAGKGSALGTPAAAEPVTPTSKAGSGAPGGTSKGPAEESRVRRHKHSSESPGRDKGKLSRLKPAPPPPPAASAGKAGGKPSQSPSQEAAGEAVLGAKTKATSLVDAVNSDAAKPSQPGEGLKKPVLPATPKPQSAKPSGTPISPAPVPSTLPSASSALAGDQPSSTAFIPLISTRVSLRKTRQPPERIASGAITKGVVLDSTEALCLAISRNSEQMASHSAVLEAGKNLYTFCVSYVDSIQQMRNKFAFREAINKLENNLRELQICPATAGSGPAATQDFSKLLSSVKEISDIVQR

Structure (SMILES): N#Cc1cc(-c2ncnc(Nc3ccc(N4CCN(C5COC5)CC4)cc3)n2)ccc1OC1CCOCC1 [Compound 1, 5-(4-((4-(4-(oxetan-3-yl)piperazin-1-yl)phenyl)amino)-1,3,5-triazin-2-yl)-2-((tetrahydro-2H-pyran-4-yl)oxy)benzonitrile]
- inhibition (off-target kinases [1]; CDK9 (Inactive), LanthaScreen Binding, read-out: % Inhibition 1): 8%
- inhibition (off-target kinases [1]; CDK9 (Inactive), LanthaScreen Binding, read-out: % Inhibition 2): 13%
- inhibition (off-target kinases [1]; CDK9 (Inactive), LanthaScreen Binding, read-out: % Inhibition Avg): 10%
- inhibition (off-target kinases [1]; CDK9/cyclin K, LanthaScreen Binding, read-out: % Inhibition 1): 11%
- inhibition (off-target kinases [1]; CDK9/cyclin K, LanthaScreen Binding, read-out: % Inhibition 2): 9%
- inhibition (off-target kinases [1]; CDK9/cyclin K, LanthaScreen Binding, read-out: % Inhibition Avg): 10%
- inhibition (off-target kinases [1]; CDK9/cyclin T1, Adapta, ATP Km app, read-out: % Inhibition 1): 18%
- inhibition (off-target kinases [1]; CDK9/cyclin T1, Adapta, ATP Km app, read-out: % Inhibition 2): 22%
- inhibition (off-target kinases [1]; CDK9/cyclin T1, Adapta, ATP Km app, read-out: % Inhibition Avg): 20%
- inhibition (off-target kinases [2]; read-out: % Inhibition 1): 70%
- inhibition (off-target kinases [2]; read-out: % Inhibition 2): 73%
- inhibition (off-target kinases [2]; read-out: % Inhibition Avg): 71%
- inhibition (off-target kinases [3]; read-out: % Inhibition 1): 90%
- inhibition (off-target kinases [3]; read-out: % Inhibition 2): 89%
- inhibition (off-target kinases [3]; read-out: % Inhibition Avg): 89%
- inhibition (off-target kinases [4]; read-out: % Inhibition 1): 45%
- inhibition (off-target kinases [4]; read-out: % Inhibition 2): 43%
- inhibition (off-target kinases [4]; read-out: % Inhibition Avg): 44%
- inhibition (off-target kinases [5]; read-out: % Inhibition 1): 48%
- inhibition (off-target kinases [5]; read-out: % Inhibition 2): 51%
- inhibition (off-target kinases [5]; read-out: % Inhibition Avg): 49%
